Experiments:
Test in all cases: relative viability (nuclei count vs DMSO), 5 days (fraction); higher = more cells survive
[1] = compound: CCCS(=O)(=O)Nc1ccc(F)c(C(=O)c2c[nH]c3ncc(-c4ccc(Cl)cc4)cc23)c1F [Vemurafenib]
Method in brief: (§1)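 Lung cancer cell lines received five library-drug doses (not always all listed) spaced by √10, pinned on vehicle-anchored 1536-well plates after an overnight stay at 37 °C. Five days later, with no medium change, nuclei were Hoechst-stained, imaged at 4× and counted with MetaXpress. Viability is treated-well nuclei relative to vehicle-well nuclei, as a median across plates. Passing plates had control CV below 25% and at least one doubling.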

[2] = compound: COc1cccc2cc(-c3nc([C@H]4CC[C@H](C(=O)O)CC4)n4ncnc(N)c34)[nH]c12 [OSI-027]
Method in brief: as §1

[3] = compound: Cc1nc(NC(=O)N2CCC[C@H]2C(N)=O)sc1-c1ccnc(C(C)(C)C(F)(F)F)c1 [Alpelisib]
Method in brief: as §1

Cell Line UMC-11 has a relative viability ([1]; 0.03162 µM) of 0.923, a relative viability ([1]; 0.1 µM) of 1.02 and a relative viability ([1]; 0.3162 µM) of 0.876. The relative viability ([1]; 1 µM) was 0.777, the relative viability ([2]; 0.01 µM) was 0.913 and the relative viability ([2]; 0.03162 µM) was 0.916. The relative viability ([2]; 0.1 µM) was 0.808, the relative viability ([2]; 0.3162 µM) was 0.704 and the relative viability ([2]; 0.5 µM, anchor plate) was 0.49. The relative viability ([2]; 1 µM) was 0.561, the relative viability ([3]; 0.04 µM) was 0.937 and the relative viability ([3]; 0.1265 µM) was 0.954. For the same cell line, the relative viability ([3]; 0.4 µM) was 1.01, the relative viability ([3]; 1.265 µM) was 0.956 and the relative viability ([3]; 2 µM, anchor plate) was 1. For the same cell line, the relative viability ([3]; 4 µM) was 0.826.
